Measurements published in publication PMC12108418, “Broad-Spectrum Gramicidin S Derivatives with Potent Activity Against Multidrug-Resistant Gram-Negative ESKAPE Pathogens” (Antibiotics, 2025).
Values after ≈ are worked out from the molar mass of the structure shown. Like-named read-outs stand apart in the source and are kept apart here. Square brackets hold non-standard residues; d marks the D form. Peptide text beside a SMILES is read from it. Tle = CC(C)(C)[C@H](N)C(=O)O; Orn = NCCC[C@H](N)C(=O)O

Experiments:
[1] = system: Klebsiella pneumoniae (ATCC 33495); assay type: cell-based; settings: ATCC 33495
Protocol: (§1) The antibacterial efficacy of peptides was assessed using the broth microdilution method in accordance with Clinical and Laboratory Standards Institute (CLSI) guidelines (M07-A10, 2015 [33]). The minimum inhibitory concentrations (MICs) were determined against Escherichia coli (ATCC 25922), Klebsiella pneumoniae (ATCC 33495), Pseudomonas aeruginosa (ATCC 27853), Acinetobacter baumannii (ATCC 19606), and Staphylococcus aureus (ATCC 29213 and ATCC USA300). Bacterial suspensions were standardised to 5 × 10^4 colony-forming units (CFUs)/well in cation-adjusted Mueller–Hinton broth (CAMHB). Peptides were dissolved in 25% DMSO and serially diluted two-fold across 96-well plates, reaching final concentrations ranging from 256 to 0.125 µg/mL. The wells were inoculated, ensuring a final volume of 100 µL per well, with a DMSO concentration of 1% (v/v) to minimise solvent interference. […] Vancomycin was used as the positive control for S. aureus. Polymyxin B served as the positive control for Gram-negative bacteria. CAMHB with 1% (v/v) DMSO (without peptides) was used as the negative control. All experiments were performed in triplicate (n = 3). Bacterial isolates were stored in tryptone soy broth with 30% glycerol at −80 °C for long-term preservation.

[2] = system: Acinetobacter baumannii (ATCC 19606); assay type: cell-based
Protocol: as §1

[3] = system: Escherichia coli (ATCC 25922); assay type: cell-based
Protocol: as §1

[4] = system: Pseudomonas aeruginosa (ATCC 27853); assay type: cell-based
Protocol: as §1

[5] = Analytical RP-HPLC retention time as measure of hydrophobicity; assay type: physicochemical; settings: measure of global hydrophobicity, Phenomenex Kinetex 2.6 µm C18 (150 × 4.6 mm), 0.7 mL/min, ACN/TFA (100:0.0008) and water/TFA (100:0.001)
Protocol: Peptide purification was carried out via preparative RP-HPLC on an Agilent 1260 Infinity II system (Santa Clara, CA, USA) equipped with a 21.2 × 150 mm Agilent ZORBAX Eclipse Plus C18 column, operating at a flow rate of 25 mL/min. The mobile phase consisted of acetonitrile containing 0.0008% trifluoroacetic acid (v/v) as the organic phase and water with 0.001% TFA as the aqueous phase. […] Analytical HPLC analysis was performed on a Hewlett-Packard Series 1100 instrument using a Phenomenex (Torrance, CA, USA) Kinetex C18 column (150 mm × 4.6 mm, 2.6 µm particle size), under identical solvent conditions, to confirm purity.
HRMS of peptide 1. […] HRMS of peptide 2. […] HRMS of peptide 3. […] HRMS of peptide 4. […] HRMS of peptide 5. […] HRMS of peptide 6. […] HRMS of peptide 7. […] HRMS of peptide 8. […] HRMS of peptide 9. […] HRMS of peptide 10. […] HRMS of peptide 11. […] HRMS of peptide 12. […] HRMS of peptide 13. […] HRMS of peptide 14. […] HRMS of peptide 15. […] HRMS of peptide 16. […] HRMS of peptide 17. […] HRMS of peptide 18. […] HRMS of peptide 19.

[6] = broth microdilution in CAMHB, 5 × 10^4 CFU/well, 1% DMSO, 37 °C, 16–20 h, 256 to 0.125 µg/mL, triplicate (n = 3)

SMILES	MIC K. pneumonia ATCC 33495 [1] [µg/mL]	MIC A. baumannii ATCC 19606 ([2]; ATCC 19606) [µg/mL]	MIC E. coli ATCC 25922 ([3]; ATCC 25922) [µg/mL]	MIC P. aeruginosa ATCC 27853 ([4]; ATCC 27853) [µg/mL]	RP-HPLC retention time tR [5] [min]	MIC E. coli ATCC 25922 [3, 6] [µg/mL]	MIC A. baumannii ATCC 19606 [2, 6] [µg/mL]	MIC P. aeruginosa ATCC 27853 [4, 6] [µg/mL]
CC(C)C[C@@H]1NC(=O)[C@H](CCCN)NC(=O)[C@H](C(C)C)NC(=O)[C@@H]2CCCN2C(=O)[C@@H](Cc2ccccc2)NC(=O)[C@H](CC(C)C)NC(=O)[C@H](CCCN)NC(=O)[C@H](C(C)C)NC(=O)[C@@H]2CCCN2C(=O)[C@@H](Cc2ccccc2)NC1=O [GS, gramicidin S] (cyclo(V[Orn]L[dF]PV[Orn]L[dF]P))	128 (≈ 112 µM)	8 (≈ 7.01 µM)	32 (≈ 28 µM)	128 (≈ 112 µM)	–	–	–	–
CC(C)(C)[C@@H]1NC(=O)[C@H](CCCN)NC(=O)[C@H](C(C)(C)C)NC(=O)[C@@H]2CCCN2C(=O)[C@@H](Cc2ccccc2)NC(=O)[C@H](C(C)(C)C)NC(=O)[C@H](CCCN)NC(=O)[C@H](C(C)(C)C)NC(=O)[C@@H]2CCCN2C(=O)[C@@H](Cc2ccccc2)NC1=O [Peptide 1] (cyclo([Orn][Tle][dF]P[Tle][Orn][Tle][dF]P[Tle]))	128 (≈ 109 µM)	4 (≈ 3.42 µM)	32 (≈ 27.4 µM)	64 (≈ 54.7 µM)	19.90	–	–	–
CC(C)C[C@@H]1NC(=O)[C@H](CCCN)NC(=O)[C@H](C(C)C)NC(=O)[C@@H]2CCCN2C(=O)[C@@H](Cc2ccccc2)NC(=O)[C@H](CC(C)C)NC(=O)[C@H](CCCN)NC(=O)[C@H](C(C)C)NC(=O)[C@H](Cc2c[nH]c3ccccc23)NC(=O)[C@@H](Cc2ccccc2)NC1=O [Peptide 2] (cyclo(L[dF]PV[Orn]L[dF]WV[Orn]))	>256	64 (≈ 52 µM)	256 (≈ 208 µM)	>256	–	–	–	–
CC(C)C[C@@H]1NC(=O)[C@H](CCCN)NC(=O)[C@H](C(C)C)NC(=O)[C@@H]2CCCN2C(=O)[C@@H](Cc2ccccc2)NC(=O)[C@H](CC(C)C)NC(=O)[C@H](CCCN)NC(=O)[C@H](C(C)C)NC(=O)[C@H](Cc2c[nH]c3ccccc23)NC(=O)[C@@H](Cc2c[nH]c3ccccc23)NC1=O [Peptide 3] (cyclo(L[dF]PV[Orn]L[dW]WV[Orn]))	>256	128 (≈ 101 µM)	–	>256	–	> 256	–	–
CC(C)C[C@@H]1NC(=O)[C@H](CCCN)NC(=O)[C@H](C(C)C)NC(=O)[C@H](Cc2c[nH]c3ccccc23)NC(=O)[C@@H](Cc2ccccc2)NC(=O)[C@H](CC(C)C)NC(=O)[C@H](CCCN)NC(=O)[C@H](C(C)C)NC(=O)[C@H](Cc2c[nH]c3ccccc23)NC(=O)[C@@H](Cc2ccccc2)NC1=O [Peptide 4] (cyclo(L[dF]WV[Orn]L[dF]WV[Orn]))	>256	–	–	>256	–	> 256	> 256	–
CC(C)C[C@@H]1NC(=O)[C@H](CCCN)NC(=O)[C@H](C(C)C)NC(=O)[C@H](Cc2c[nH]c3ccccc23)NC(=O)[C@@H](Cc2c[nH]c3ccccc23)NC(=O)[C@H](CC(C)C)NC(=O)[C@H](CCCN)NC(=O)[C@H](C(C)C)NC(=O)[C@H](Cc2c[nH]c3ccccc23)NC(=O)[C@@H](Cc2ccccc2)NC1=O [Peptide 5] (cyclo(L[dF]WV[Orn]L[dW]WV[Orn]))	>256	–	–	>256	–	> 256	> 256	–
CC(C)(C)[C@@H]1NC(=O)[C@H](CCCN)NC(=O)[C@H](C(C)(C)C)NC(=O)[C@@H]2CCCN2C(=O)[C@@H](Cc2ccccc2)NC(=O)[C@H](C(C)(C)C)NC(=O)[C@H](CCCN)NC(=O)[C@H](C(C)(C)C)NC(=O)[C@@H]2CCCN2C(=O)[C@@H](CCCNC(=N)N)NC1=O [Peptide 7] (cyclo([Orn][Tle][dF]P[Tle][Orn][Tle][dR]P[Tle]))	32 (≈ 27.2 µM)	4 (≈ 3.39 µM)	16 (≈ 13.6 µM)	32 (≈ 27.2 µM)	16.92	–	–	–
CC(C)C[C@@H]1NC(=O)[C@H](CCCN)NC(=O)[C@H](C(C)C)NC(=O)[C@@H]2CCCN2C(=O)[C@@H](Cc2ccccc2)NC(=O)[C@H](CC(C)C)NC(=O)[C@H](CCCN)NC(=O)[C@H](C(C)C)NC(=O)[C@H](Cc2c[nH]c3ccccc23)NC(=O)[C@@H](CCCNC(=N)N)NC1=O [Peptide 8] (cyclo(L[dF]PV[Orn]L[dR]WV[Orn]))	16 (≈ 12.9 µM)	8 (≈ 6.45 µM)	–	32 (≈ 25.8 µM)	–	8 (≈ 6.45 µM)	–	–
CC(C)C[C@@H]1NC(=O)[C@H](CCCN)NC(=O)[C@H](C(C)C)NC(=O)[C@@H]2CCCN2C(=O)[C@@H](Cc2ccccc2)NC(=O)[C@H](CC(C)C)NC(=O)[C@H](CCCN)NC(=O)[C@H](C(C)C)NC(=O)[C@@H]2CCCN2C(=O)[C@@H](CCCNC(=N)N)NC1=O [Peptide 9] (cyclo(L[dF]PV[Orn]L[dR]PV[Orn]))	16 (≈ 13.9 µM)	8 (≈ 6.95 µM)	16 (≈ 13.9 µM)	32 (≈ 27.8 µM)	–	–	–	–
CC(C)C[C@@H]1NC(=O)[C@H](CCCN)NC(=O)[C@H](C(C)C)NC(=O)[C@@H]2CCCN2C(=O)[C@@H](CCCNC(=N)N)NC(=O)[C@H](CC(C)C)NC(=O)[C@H](CCCN)NC(=O)[C@H](C(C)C)NC(=O)[C@H](Cc2c[nH]c3ccccc23)NC(=O)[C@@H](Cc2ccccc2)NC1=O [Peptide 10] (cyclo(L[dF]WV[Orn]L[dR]PV[Orn]))	32 (≈ 25.8 µM)	8 (≈ 6.45 µM)	16 (≈ 12.9 µM)	32 (≈ 25.8 µM)	–	–	–	–
CC(C)C[C@@H]1NC(=O)[C@H](CCCN)NC(=O)[C@H](C(C)C)NC(=O)[C@H](Cc2c[nH]c3ccccc23)NC(=O)[C@@H](Cc2ccccc2)NC(=O)[C@H](CC(C)C)NC(=O)[C@H](CCCN)NC(=O)[C@H](C(C)C)NC(=O)[C@H](Cc2c[nH]c3ccccc23)NC(=O)[C@@H](CCCNC(=N)N)NC1=O [Peptide 11] (cyclo(L[dF]WV[Orn]L[dR]WV[Orn]))	16 (≈ 12 µM)	8 (≈ 6.02 µM)	16 (≈ 12 µM)	32 (≈ 24.1 µM)	–	–	–	–
CC(C)C[C@@H]1NC(=O)[C@H](CCCN)NC(=O)[C@H](C(C)(C)C)NC(=O)[C@@H]2CCCN2C(=O)[C@@H](Cc2ccccc2)NC(=O)[C@H](CC(C)C)NC(=O)[C@H](CCCN)NC(=O)[C@H](C(C)C)NC(=O)[C@@H]2CCCN2C(=O)[C@@H](Cc2ccccc2)NC1=O [Peptide 12] (cyclo(L[dF]P[Tle][Orn]L[dF]PV[Orn]))	128 (≈ 111 µM)	8 (≈ 6.92 µM)	32 (≈ 27.7 µM)	128 (≈ 111 µM)	–	–	–	–
CC(C)C[C@@H]1NC(=O)[C@H](CCCN)NC(=O)[C@H](C(C)C)NC(=O)[C@@H]2CCCN2C(=O)[C@@H](Cc2ccccc2)NC(=O)[C@H](CC(C)C)NC(=O)[C@H](CCCNC(=N)N)NC(=O)[C@H](C(C)C)NC(=O)[C@@H]2CCCN2C(=O)[C@@H](CCCNC(=N)N)NC1=O [Peptide 15] (cyclo(L[dF]PV[Orn]L[dR]PVR))	16 (≈ 13.4 µM)	8 (≈ 6.71 µM)	16 (≈ 13.4 µM)	–	16.47	–	–	32 (≈ 26.8 µM)
